Literature values, collected in article PMC9781020, “Anti-Mycobacterial N-(2-Arylethyl)quinolin-3-amines Inspired by Marine Sponge-Derived Alkaloid” (Molecules, 2022).

Test system: drug-sensitive M. tuberculosis H37Rv and extensively drug-resistant M. tuberculosis strains
Settings: cited from earlier work

For `COC1=Cc2ccnc3c(NCCc4ccccc4)cnc(c23)C1=O` [Compound 1, 3-(phenethylamino)demethyl(oxy)aaptamine, reference compound], the MIC is given as 1.5 to 6.0 µM.
